Test results reported in patent publication US20250302813A1, “RECOMBINANT METHIONINASE IN THE TREATMENT OF CANCER” (ANTICANCER INC, priority 2024, published 2025).
Like-named read-outs stand apart in the source and are kept apart here.

Assays:
[1] = test system: HCT-116 human colon cancer cell line; assay: Cell viability testing of HCT-116 cells (Cell Counting Kit-8, WST-8 reagent); format: cell-based; details: for IC50: Homo sapiens
Description: Cell culture: The HCT-116 human colon cancer cell line was acquired from the American Type Culture Collection (Manassas, VA, USA). The cells were grown in Dulbecco's […] medium (DMEM) with 10% fetal bovine serum and 100 IU/ml of penicillin/streptomycin.
Cell viability testing: HCT-116 cells were cultivated at subconfluence overnight in Dulbecco's modified Eagle's medium in 96-well plates (1.0×10^3 cells per well). The following day, HCT-116 cells were treated with concentrations of rMETase ranging from 0.125 to 8 U/ml or regorafenib ranging from 0.25 μM to 16 μM. Regorafenib was purchased from MedChemExpress (Monmouth Junction, NJ, USA). After 72 h of treatment, cell viability was assessed using the Cell Counting Kit-8 (Dojindo Laboratory, Kumamoto, Japan) with the WST-8 reagent.
ImageJ version 1.53 (National Institutes of Health, Bethesda, MD, USA) was applied to calculate IC50 values and sensitivity curves. After calculating the half-maximal inhibitory concentration (IC50) for rMETase and regorafenib, the […]. concentrations of both drugs were used to determine the synergistic efficacy of the combination of the drugs. Finally, the IC50 study was repeated for regorafenib on HCT-116 cells treated in combination with the IC50 concentration of rMETase to examine whether methionine restriction increased the efficacy of regorafenib. Each experiment was carried out in triplicate.
Statistics: GraphPad Prism 9.4.0 (GraphPad Software, Inc., San Diego, CA, USA) was used to conduct all statistical analyses. Tukey's multiple comparison test was performed for the parametric test of comparison between groups. All data are presented as the mean and standard deviation. The significance level was p≤0.05.

[2] = test system: human colorectal cancer cell line; details: in vitro; cited from earlier work
[3] = patients; oral regorafenib; cited from earlier work

Q: With `CNC(=O)c1cc(Oc2ccc(NC(=O)Nc3ccc(Cl)c(C(F)(F)F)c3)c(F)c2)ccn1` [regorafenib, 4-[4-[[4-chloro-3-(trifluoromethyl)phenyl]carbamoylamino]-3-fluorophenoxy]-N-methylpyridine-2-carboxamide] as the compound, how does the IC50 ([1]; HCT-116, 72 h, addition of rMETase at 0.61 U/ml (its IC50), 72 h, WST-8, read-out: IC50 of regorafenib in combination with rMETase) read?
A: 1460 nM

Q: And the IC50 ([1]; HCT-116, 72 h, regorafenib alone, 72 h treatment, WST-8, read-out: IC50 of regorafenib on HCT-116 cells)?
A: 2200 nM

Q: What about the IC50 ([1]; HCT-116, regorafenib alone, read-out: IC50 of regorafenib alone on HCT-116 cells (printed in U/ml)) of the same compound?
A: 2260 nM

Q: What about the “Increase of intracellular S-adenosyl-L-methionine (SAM) level compared to the control” value [2] of the same compound?
A: 34.5%

Q: And the “Time to appearance of toxicity after the start of treatment (severe skin rash, diarrhea, hypertension, fatigue)” value [3]?
A: 3 to 4 days

Q: Which “IC50 of rMETase on HCT-116 cells” value ([1]; rMETase alone, 72 h treatment, WST-8) does the source give for “rMETase: recombinant methioninase produced by fermentation of recombinant Escherichia coli transformed with the methioninase gene from Pseudomonas putida” here?
A: 0.61 U/ml
